Test results as given in PMC3904841, “Crystal Structures of HIV-1 gp120 Envelope Glycoprotein in Complex with NBD Analogues That Target the CD4-Binding Site” (PLoS ONE, 2014).
Where two headings read alike, the source gives them in different places.

Legend:
HIV-1YU2 virus = details: cited from earlier work; for Activation of Viral Infectivity: relative, CD4 negative Cf2Th-CCR5 cells; for activation of viral infectivity in CD4-negative cells (in words): summary of Table S1
Cf2Th-CD4-CCR5 cells = tested on: Cf2Th-CD4-CCR5 cells; parameters: method as in PMID 22497421; details: 100 µM; ref [24]; cited from earlier work
HIV-1 YU2 virus = details: cited from earlier work; for IC50: Cf2Th-CD4/CCR5 cells infected with HIV-1 YU2 virus
gp120 = details: cited from earlier work; for Kd: binding affinity for gp120
[1] = tested on: amphotropic murine leukemia virus (A-MLV); details: cells infected with A-MLV, cited from earlier work
gp120 coremin = assay: SPR enhancement of gp120 coremin binding to 17b antibody; parameters: species or system HIV-1; details: 100 nM gp120, 0–100 µM compound, 17b captured on CM5 chip
Description: A major undesired trait of NBD analogues as HIV-1 entry inhibitors is their capacity to activate viral infectivity in CD4-negative cells. To understand the underlying mechanisms of activation of HIV-1 infectivity in CD4-negative cells in the presence of select NBD analogues, we asked if the capacity of the four analogues to induce gp120 conformational change to the CD4-bound state might account for observed differences in viral infectivity. To address this question, we employed surface-plasmon resonance (SPR) and measured the capacity of NBD-557, (±)-AS-II-37, (±)-AS-I-261, (±)-MAE-II-167, and (±)-MAE-II-188 to increase the binding affinity of either the minimal core (coremin) or full-length gp120 for the 17b antibody, which recognizes gp120 in the CD4-bound conformation. We chose gp120 coremin over coree for SPR measurement because the coree is already in the CD4 bound conformation, and the effect of these small molecules on 17b-gp120 interaction is undetectable.
Figure 7 NBD analogue binding to gp120 enhances 17b-gp120 interaction. (A–D) 100 nM of gp120 coremin or full-length gp120 in the presence of 0–100 µM of NBD analogues was passed over 17b antibody immobilized on a CM5 chip. The binding of gp120 to 17b increased, in a concentration dependent manner, in response to treatment with the NBD analogues.
SPR experiments were performed using Biacore T100 (GE Healthcare) at 25°C. […] HBS-EP buffer (GE Healthcare) was used for the running buffer. A capture method was used to monitor the enhancement of gp120 binding to 17b by NBD-analogues. […] The running buffer contained 20 mM HEPES, pH 7.4, 150 mM NaCl, 0.05% P-20, and 5% DMSO.

[2] = tested on: laboratory-adapted HIV-1IIIB strain; parameters: method as in Zhao et al. [18]; details: printed in the HIV-1 YU2 column, but determined in laboratory-adapted HIV-1IIIB strain; ref Zhao et al. [18]; cited from earlier work
[3] = tested on: virus expressing the S375W Env gp120; parameters: method as in PMID 19000821; details: virus expressing S375W Env gp120 incubated with target cells; ref [21]; cited from earlier work
[4] = tested on: full-length gp120 variants possessing the Ser 375 to Trp mutation (S375W); parameters: method as in PMID 19000821; details: ref [21]; cited from earlier work
[5] = tested on: Clade CRF34_1OUR2478P gp120 coree; assay: SPR binding of gp120 coree to immobilized NBD-556 and sCD4; parameters: species or system HIV-1; details: ligand on CM5 chip, Trp 375
Description: (§1) Our structures reveal that Region I and II of the NBD congeners fit deeply within the Phe 43 cavity. As such, mutations that alter the shape of the cavity will also affect binding of the small molecules to gp120. One residue in close proximity to Region I and II of the NBD congeners is Ser 375 (vide supra). […] In several group O, N, or M HIV-1 viruses, Ser 375 of gp120 is replaced with either Met or His. […] However, the rate of Ser 375 to Trp mutation may be counterbalanced because the same mutation is also detrimental to the viruses by predisposing gp120 to adopt the CD4-bound conformation, a state prone to inactivation. Overall, the Phe 43 cavity remains an indispensable target for small molecule inhibitors.
(§2) Figure 8 NBD analogues are unable to bind Ser 375 variants of gp120s. […] Ser 375 was shown in the NBD-557 bound cavity. […] NBD-557 modeled into the Phe 43 cavity of clade A/E gp120 clashes with His 375. […] Met 375 modeled into NBD-557-bound YU2 gp120 clashes with NBD-557. […] NBD-557 clashes with Trp 375 in the Phe 43 cavity.

[6] = tested on: Clade A/E93TH057 gp120 coree; assay: as above; parameters: species or system HIV-1; details: ligand on CM5 chip, His 375
Description: as §1, §2

[7] = tested on: Clade AKER2008 gp120 coree; assay: as above; parameters: species or system HIV-1; details: ligand on CM5 chip, Met 375
Description: as §1, §2

[8] = HIV-1YU2, normalized to N-(4-Chloro-3-Fluorophenyl)-N'-(1,2,2,6,6-Pentamethylpiperidin-4-yl)ethanediamide, ref [24,27]
[9] = HIV-1YU2, normalized to 1 (NBD-556), ref Madani et al. [21]
[10] = HIV-1YU2, normalized to 2 (NBD-557), ref [24,27]

In the case of N=C(N)N[C@H]1Cc2ccccc2[C@@H]1NC(=O)C(=O)Nc1ccc(Cl)c(F)c1 [DMJ-I-228], the “Activation of Viral Infectivity” value (HIV-1YU2 virus; [8]) is listed as 0.0, the “activation of viral infectivity in CD4-negative cells (in words)” value (HIV-1YU2 virus; ref [24,27]) is listed as “did not” and the “effect on cell growth dynamics (cytotoxicity)” value (Cf2Th-CD4-CCR5 cells) is listed as “does not alter the cell growth dynamics”. The IC50 (HIV-1 YU2 virus; ref [24,27]) was 22.9 µM, the Kd (gp120; ref [24,27]) was 0.25 µM and the IC50 ([1]; ref [24,27]) was > 100 µM.
For CC1(C)CC(NC(=O)C(=O)Nc2ccc(Cl)c(F)c2)CC(C)(C)N1 [JRC-II-191], the “Activation of Viral Infectivity” value (HIV-1YU2 virus; [9]) is listed as 1.9 ± 0.2, the IC50 (HIV-1 YU2 virus; ref Madani et al. [21]) is listed as 54.4 µM and the “inhibition of HIV-1YU2 infection of cells expressing CD4 and CCR5” value (HIV-1 YU2 virus; compared with NBD-556, ref [21], [27]) is listed as “more potently than NBD-556”. For the same compound, the “enhancement of binding affinity for YU2 gp120” value (gp120; para-chloro, meta-fluoro aromatic ring, compared with NBD-556, ref [21], [27]) was 5 fold and the IC50 ([1]; ref Madani et al. [21]) was > 100 µM.
For O=C(NCC1NCCc2ccccc21)C(=O)Nc1ccc(Cl)c(F)c1 (centres unmarked) [AS-II-37], the “Activation of Viral Infectivity” value (HIV-1YU2 virus; [10]) is listed as 0.6, the IC50 (HIV-1 YU2 virus; ref [24,27]) is listed as 50.4 µM and the Kd (gp120; ref [24,27]) is listed as 1.2 µM. The IC50 ([1]; ref [24,27]) was > 100 µM and the “enhancement of gp120 coremin binding to 17b” value (“enhancement … to 17b” below) (gp120 coremin) was “somewhat reduced enhancement”.
In the case of CC1(C)O[C@@H](CN)[C@H](CNC(=O)C(=O)Nc2ccc(Cl)c(F)c2)O1 (relative stereo) [AS-I-261], the “Activation of Viral Infectivity” value (HIV-1YU2 virus; [10]) is listed as 1.5, the “activation of viral infectivity in CD4-negative cells (in words)” value (HIV-1YU2 virus; ref [24,27]) is listed as “activated viral infectivity” and the IC50 (HIV-1 YU2 virus; ref [24,27]) is listed as 76.6 µM. The Kd (gp120; ref [24,27]) was 2.6 µM, the IC50 ([1]; ref [24,27]) was 94.4 µM and the “enhancement … to 17b” value (gp120 coremin) was “equally enhanced”.
In the case of COc1ccnc2[nH]cc(C(=O)C(=O)N3CCN(C(=O)c4ccccc4)C[C@H]3C)c12 [BMS-806, reference compound], the “enhancement … to 17b” value (gp120 coremin) is reported as “did not enhance”.
For CC1(C)CC(NC(=O)C(=O)Nc2ccc(Br)cc2)CC(C)(C)N1 [NBD-557, reference compound], the “Activation of Viral Infectivity” value (HIV-1YU2 virus; [9]) is given as 0.9 ± 0.4, the Kd (gp120; ref Madani et al. [21]) is given as 2.2 µM and the IC50 [2] is given as 3.08 µM. The “enhancement of CD4-independent viral entry” value [3] was “does not enhance”.
In the case of N=C(N)NC[C@H]1Cc2ccccc2[C@@H]1NC(=O)C(=O)Nc1ccc(Cl)c(F)c1 [DMJ-II-121], the “Activation of Viral Infectivity” value (HIV-1YU2 virus; HIV-1YU2, normalized to 1 (NBD-556), ref [24,27]) is given as 0.0, the IC50 (HIV-1 YU2 virus; ref [24,27]) is given as 2.3 µM and the Kd (gp120; ref [24,27]) is given as 0.11 µM. For the same compound, the IC50 ([1]; ref [24,27]) was > 100 µM.
For CC1(C)CC(NC(=O)C(=O)Nc2ccc(Cl)cc2)CC(C)(C)N1 [NBD-556], the “Activation of Viral Infectivity” value (HIV-1YU2 virus; [9]) is listed as 1.0 ± 0.1, the IC50 (HIV-1 YU2 virus; ref Madani et al. [21]) is listed as > 100 µM and the IC50 ([1]; ref Madani et al. [21]) is listed as > 100 µM. For the same compound, the “binding to S375W full-length gp120” value [4] was “inefficiently bind”, the “binding of gp120 coree to immobilized ligand” value (from here on “binding of gp120 coree”) [5] was “does not bind” and the “binding of gp120 coree” value [6] was “does not show detectable binding”. For the same compound, the “binding of gp120 coree” value [7] was “does not bind”.
For O=C(NC[C@@]12CCC[C@@H]1CNC2)C(=O)Nc1ccc(Cl)c(F)c1 (relative stereo) [MAE-II-167], the “Activation of Viral Infectivity” value (HIV-1YU2 virus; [10]) is listed as 0.0, the IC50 (HIV-1 YU2 virus; ref [24,27]) is listed as 68.3 µM and the Kd (gp120; ref [24,27]) is listed as 3.1 µM. The IC50 ([1]; ref [24,27]) was 93.1 µM and the “enhancement … to 17b” value (gp120 coremin) was “equally enhanced”.
For N=C(N)N[C@@H]1Cc2ccccc2[C@H]1NC(=O)C(=O)Nc1ccc(Cl)c(F)c1 [AWS-I-169], the “Activation of Viral Infectivity” value (HIV-1YU2 virus; [8]) is listed as 0.0, the IC50 (HIV-1 YU2 virus; ref [24,27]) is listed as 21.3 µM and the Kd (gp120; ref [24,27]) is listed as 0.3 µM. The IC50 ([1]; ref [24,27]) was > 100 µM.
For O=C(NCC1CCN(C2CC2)C1)C(=O)Nc1ccc(Cl)c(F)c1 (centres unmarked) [MAE-II-188], the “Activation of Viral Infectivity” value (HIV-1YU2 virus; [10]) is listed as 0.3, the IC50 ([1]; ref [24,27]) is listed as > 100 µM and the “enhancement … to 17b” value (gp120 coremin) is listed as “equally enhanced”.
